According to patent US20160304861A1, “SPATIAL MULTIPLEXING FOR MULTISIGNAL CELLULAR IMAGING” (Massachusetts Institute of Technology, priority 2015, published 2016):

Tested on: Gcamp6f sensor cluster in HEK293 cells
Assay: Gcamp6f sensor cluster response to ionomycin treatment in HEK293 cells
Type: cell-based
Conditions: 20 mM ionomycin in DMSO added at around 2 minutes, FIG. 1C
Procedure: HEK cells were transfected with the TransIT®-293 transfection reagent (Minis). Cells were plated in a 24-well plate, transfected with 50 ng plasmids per well after 18-24 hours plating, and imaged 24 hours after transfection. Mouse neurons were transfected with the calcium phosphate transfection kit (Invitrogen). Neurons were plated in a 24-well plate, transfected 96 hours after plating with 1500 ng plasmids per well and were imaged at least 48 hours after transfection. For co-transfection in neurons, two plasmids were mixed as 1:1 ratio, maintaining a total of 1500 ng plasmids per well. For HEK experiments, NucBlue Life cell stain and ReadyProbes reagent (Life Technologies) were added to stain the nucleus. Mfn1-null MEF cells (ATCC® CRL-2992™) were plated in a 24-well glass-bottom plate with 50-70% cell confluency. Plasmids were then transfected with a mixture of 200 ng plasmid and […] Trans-IT X2 (Mirus) per well. Transfected cells were incubated at 37° C. for 48-72 hours to establish the expression.
An inverted epi-fluorescence Nikon Ti Eclipse equipped with SPECTRA X light engine (LumenCor), Zyla5.5 camera (Andor), 100× 1.45 NA oil objective lens (Nikon), 20× 0.75 NA objective lens (Nikon), and standard CFP-YFP FRET filter sets (Semrock) were used to image the fluorescent patterns. FRET imaging typically lasts for 10 min. […]

C[C@H](CCC(=O)O)C[C@H](C)C[C@H](C)C(=O)/C=C(\O)[C@H](C)C[C@H](C)C/C=C/[C@@H](C)[C@@H](O)[C@@H](C)[C@@H](O)C[C@@H]1CC[C@@](C)([C@H]2CC[C@@](C)([C@@H](C)O)O2)O1 [ionomycin]
fluorescence by the Gcamp6f sensor cluster: incrase in fluorescence
